Source: patent US20210277003A1, “OGA INHIBITOR COMPOUNDS” (Janssen Pharmaceutica NV, priority 2018, published 2021)

Experiments:
[1] = target: T1, recombinant human Meningioma Expressed Antigen 5 (MGEA5), also referred to as O-GlcNAcase (OGA) (Homo sapiens, UniProt O60502); assay: OGA biochemical assay: inhibition of hydrolysis of fluorescein mono-ß-D-N-Acetyl-Glucosamine (FM-GlcNAc), fluorescence readout; settings: FM-GlcNAc substrate; for Emax: read-out: Enzymatic Emax (%); for IC50: read-out: Enzymatic hOGA, pIC50 (converted)
T1 construct: Full length OGA enzyme was purchased at OnGene (cat #TP322411); purchased OnGene (so in the source)
T1 sequence (O60502 1-916): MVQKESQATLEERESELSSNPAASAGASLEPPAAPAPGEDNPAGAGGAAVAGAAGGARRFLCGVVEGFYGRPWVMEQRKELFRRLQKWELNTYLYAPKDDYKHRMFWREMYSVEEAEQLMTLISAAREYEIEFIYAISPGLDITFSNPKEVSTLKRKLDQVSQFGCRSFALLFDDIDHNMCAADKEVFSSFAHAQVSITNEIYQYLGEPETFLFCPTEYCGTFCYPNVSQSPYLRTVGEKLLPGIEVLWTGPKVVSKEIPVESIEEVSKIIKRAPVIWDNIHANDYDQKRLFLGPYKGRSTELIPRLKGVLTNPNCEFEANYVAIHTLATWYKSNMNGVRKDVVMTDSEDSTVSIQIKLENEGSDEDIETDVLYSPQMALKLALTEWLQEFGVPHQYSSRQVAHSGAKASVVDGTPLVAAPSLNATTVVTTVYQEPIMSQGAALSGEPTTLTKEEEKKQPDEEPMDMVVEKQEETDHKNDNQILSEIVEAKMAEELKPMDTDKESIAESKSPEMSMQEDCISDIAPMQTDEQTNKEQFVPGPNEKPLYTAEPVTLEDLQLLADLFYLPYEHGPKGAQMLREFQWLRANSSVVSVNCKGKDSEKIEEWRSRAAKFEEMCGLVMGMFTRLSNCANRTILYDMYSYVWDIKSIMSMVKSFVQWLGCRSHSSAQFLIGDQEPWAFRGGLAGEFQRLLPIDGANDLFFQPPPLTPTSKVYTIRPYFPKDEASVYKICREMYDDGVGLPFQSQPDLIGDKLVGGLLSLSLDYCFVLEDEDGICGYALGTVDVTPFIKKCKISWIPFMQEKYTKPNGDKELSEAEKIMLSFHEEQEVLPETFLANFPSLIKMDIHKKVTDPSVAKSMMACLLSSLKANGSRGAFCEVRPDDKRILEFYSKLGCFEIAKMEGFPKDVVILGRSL
How it was run: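 Full-length recombinant human OGA (2 nM) was pre-incubated with compound for 60 min, then reacted with 100 uM FM-GlcNAc for 6 h at room temperature in 200 mM citrate/phosphate pH 7.2 with 0.005% Tween-20. Reactions were stopped with pH 11.0 carbonate and fluorescein read at 485/538 nm. IC50 and Hill coefficient came from curve fitting.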

[2] = tested on: OGA in HEK293 cells inducible for P301L mutant human Tau (isoform 2N4R); assay: OGA cellular assay: immunocytochemical detection of O-GlcNAcylated proteins (CTD110.6 antibody); type: cell-based; settings: Homo sapiens, HEK293, 6 h, 6 hours incubation; for Emax: maximum = Thiamet G 200 uM; for EC50: read-out: Cellular hOGA, pEC50 (converted)
Experimental: HEK293 cells inducible for P301L mutant human Tau (isoform 2N4R) were established at Janssen. Thiamet-G was used for both plate validation (high control) and as reference compound (reference EC50 assay validation). OGA inhibition is evaluated through the immunocytochemical (ICC) detection of O-GlcNAcylated proteins by the use of a monoclonal antibody (CTD110.6; Cell Signaling, #9875) detecting 0-GlcNAcylated residues as previously described (Dorfmueller et al. 2010 Chemistry & biology, 17:1250). Inhibition of OGA will result in an increase of O-GlcNAcylated protein levels resulting in an increased signal in the experiment. Cell nuclei are stained with Hoechst to give a cell culture quality control and a rough estimate of immediate compounds toxicity, if any. ICC pictures are imaged with a Perkin Elmer Opera Phenix plate microscope and quantified with the provided software Perkin Elmer Harmony 4.1.
Cells were propagated in DMEM high Glucose (Sigma, #D5796) following standard procedures. 2 days before the cell assay cells are split, counted and seeded in Poly-D-Lysine (PDL) coated 96-wells (Greiner, #655946) plate at a cell density of 12,000 cells per cm^2 (4,000 cells per well) in 100p of Assay Medium (Low Glucose medium is used to reduce basal levels of GlcNAcylation) (Park et al. 2014 The Journal of biological chemistry 289:13519). At the day of compound test medium from assay plates was removed and replenished with 90 µl of fresh Assay Medium. 10p of compounds at a 10 fold final concentration were added to the wells. Plates were centrifuged shortly before incubation in the cell incubator for 6 hours. DMSO concentration was set to 0.2%. Medium is discarded by applying vacuum. For staining of cells medium was removed and cells washed once with 100 μl D-PBS (Sigma, #D8537). From next step onwards unless other stated assay volume was always 50p and incubation was performed without agitation and at room temperature. Cells were fixed in 50 μl of a 4% paraformaldehyde (PFA, Alpha aesar, #043368) PBS solution for 15 minutes at room temperature. […] Before analysis samples were washed 2 times manually for 5 minutes in ICC base buffer.
Imaging is performed using Perkin Elmer Phenix Opera using a water 20× objective and recording 9 fields per well. Intensity readout at 488 nm is used as a measure of O-GlcNAcylation level of total proteins in wells. To assess potential toxicity of compounds nuclei were counted using the Hoechst staining. IC50-values are calculated using parametric non-linear regression model fitting. As a maximum inhibition Thiamet G at a 200 uM concentration is present on each plate. In addition, a concentration response of Thiamet G is calculated on each plate.

Compound | Emax [1] [%] | IC50 [1] [nM] | Emax [2] [%] | EC50 [2] [nM] | Enzymatic hOGA; pIC50 [1] | Enzymatic Emax (%) [1] [%]
CCCCn1ccc2c(Nc3c(C)ccc(C(=O)NC)c3C)nccc21 [Compound 58] | 101 | 3.09 | 88 | 72.4 | – | –
Cc1ccnc(C)c1Nc1nccc2c1ccn2CCC(C)C [Compound 47] | 101 | 11.7 | 95 | 47.9 | – | –
CCCCn1ccc2c(Nc3c(C)ccc4c3nc(C)n4C)nccc21 [Compound 206] | 101 | 51.3 | 63.7 | 661 | – | –
Cc1ncnc(C(C)C)c1Nc1nccc2c1ccn2CCC1CC1 [Compound 193] | 102 | 6.31 | 89.7 | 112 | – | –
Cc1cc2c(c(C)c1Nc1nccc3c1ccn3CC1CC(F)(F)C1)OCCO2 [Compound 175] | 100 | 6.31 | 80.1 | 37.2 | – | –
COCCn1ccc2c(Nc3c(Cl)cccc3Cl)nccc21 [Compound 40] | 102 | 81.3 | 30 | > 1000 | – | –
Cc1ccnc(C)c1Nc1nccc2c1ccn2CCC(F)F [Compound 96] | 102 | – | 60 | 513 | 7.1 | –
CCCCn1ccc2c(Nc3c(Cl)cncc3Cl)nccc21 [Compound 42] | 100 | 34.7 | 49 | > 1000 | – | –
Cc1cc(F)c(F)c(C)c1Nc1nccc2c1ccn2CC(C)(F)F [Compound 153] | 102 | – | 74.1 | 20.4 | 8.52 | –
Cc1cc(C(F)(F)F)cc(Cl)c1Nc1nccc2c1ccn2CC(C)(F)F [Compound 128] | 101 | – | 90.3 | 12.9 | 8.58 | –
CC[C@H](O)Cn1ccc2c(Nc3c(C)cc(C#N)cc3Cl)nccc21 [Compound 123b] | 99.2 | – | 71.1 | 100 | 7.53 | –
Cc1cc(C)c(Nc2nccc3c2ccn3CC(C)(F)F)c(C)c1 [Compound 135] | 98.8 | – | 82.2 | 9.33 | 8.64 | –
CCCCn1ccc2c(Nc3c(C)cncc3Cl)nccc21 [Compound 5] | 101 | – | 67 | 67.6 | 7.95 | –
CCCCn1ccc2c(Nc3c(C)cc(CF)cc3C)nccc21 [Compound 101] | 103 | 3.24 | 83 | 57.5 | – | –
Cc1cc(Cn2ccc3c(Nc4c(Cl)cc(F)cc4Cl)nccc32)no1 [Compound 158] | 101 | – | 71 | 63.1 | 8.58 | –
Cc1ccnc(C)c1Nc1nccc2c1ccn2CCC1COC1 [Compound 38] | 100 | 115 | 63 | 562 | – | –
Cn1ccc(-n2ccc3c(Nc4c(Cl)cc(F)cc4Cl)nccc32)n1 [Compound 184] | 101 | 79.4 | 46.5 | 912 | – | –
Cc1ccnc(C(C)C)c1Nc1nccc2c1ccn2CC1CC(F)(F)C1 [Compound 117] | 101 | – | 89.6 | 44.7 | 8.26 | –

Compound | Emax [1] [%] | IC50 [1] [nM] | Emax [2] [%] | EC50 [2] [nM] | Enzymatic hOGA; pIC50 [1] | Enzymatic Emax (%) [1] [%]
CCC(F)(F)Cn1ccc2c(Nc3c(C)ccnc3C(C)C)nccc21 [Compound 112] | 102 | – | 92.3 | ~1.82 | 8.88 | –
CC(C)(C#N)Cn1ccc2c(Nc3c(Cl)cc(F)cc3Cl)nccc21 [Compound 83] | 96 | 912 | 8 | > 1000 | – | –
Cc1cncc(C)c1Nc1nccc2c1ccn2CC1CC1(F)F (centres unmarked) [Compound 1] | 102 | 151 | 56 | 708 | – | –
Cc1ccnc(C(C)(C)F)c1Nc1nccc2c1ccn2CC(C)(F)F [Compound 205] | 98.2 | 3.02 | 88.6 | 9.55 | – | –
CCCCn1c(F)cc2c(Nc3c(C)cncc3C)nccc21 [Compound 31] | 99 | 302 | 27 | > 1000 | – | –
CCCCn1ccc2c(Nc3c(Cl)ccc4c3OCCO4)nccc21 [Compound 51] | 102 | 11.2 | 76 | 117 | – | –
CCCCn1ccc2c(Nc3c(C)ccc(C(=O)N(C)C)c3C)nccc21 [Compound 59] | 101 | 4.37 | 88 | 100 | – | –
Cc1cccc(S(C)(=O)=O)c1Nc1nccc2c1ccn2CC1CC(F)(F)C1 [Compound 174] | 99.3 | 12.9 | 87 | 93.3 | – | –
Cc1ccnc(C)c1Nc1nccc2c1ccn2CC1CCOC1 (centres unmarked) [Compound 140] | 103 | – | 63.9 | 603 | 7.08 | –
CCCCn1ccc2c(Nc3c(C)cccc3C(C)C)nccc21 [Compound 67] | 104 | 0.891 | 99 | 16.2 | – | –
CC(C)C(F)(F)Cn1ccc2c(Nc3c(Cl)cccc3Cl)nccc21 [Compound 196] | 104 | 1.51 | 91.7 | 8.51 | – | –
Cc1cc(Cn2ccc3c(Nc4c(C)ccnc4C)nccc32)no1 [Compound 133] | 101 | – | 76.1 | 87.1 | 8.16 | –
Clc1cccc(Cl)c1Nc1nccc2c1ccn2CCC1COC1 [Compound 122] | – | – | 84.1 | 263 | 7.72 | 103.22
CCCCn1ccc2c(Nc3c(C)ccnc3C)ncc(F)c21 [Compound 80] | 100 | 28.8 | 73 | 372 | – | –
CCCCn1ccc2c(Nc3c(C)cc(C)cc3C)nccc21 [Compound 68] | 104 | 3.8 | 87 | 57.5 | – | –
Cc1c(F)cnc(C(C)C)c1Nc1nccc2c1ccn2CC1CCO1 (centres unmarked) [Compound 127] | 103 | – | 76.7 | 11.5 | 8.75 | –
FC(F)(F)CCn1ccc2c(Nc3c(Cl)cccc3Cl)nccc21 [Compound 200] | 103 | 23.4 | 70.1 | 513 | – | –
